In one series the target is T1, human caspase-6 (Homo sapiens, UniProt P55212).
T1 construct: gift, Prof; Guy Salvesen's laboratory
T1 sequence (P55212 24-179 limits assumed): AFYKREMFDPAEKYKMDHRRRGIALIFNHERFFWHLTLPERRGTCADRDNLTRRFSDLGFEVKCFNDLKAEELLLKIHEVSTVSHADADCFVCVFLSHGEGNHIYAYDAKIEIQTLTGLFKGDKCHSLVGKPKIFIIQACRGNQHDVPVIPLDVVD
T1 sequence (P55212 194-293 limits assumed): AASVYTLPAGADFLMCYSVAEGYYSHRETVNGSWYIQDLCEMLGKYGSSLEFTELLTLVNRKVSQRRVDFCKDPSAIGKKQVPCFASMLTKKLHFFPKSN
Briefly: Caspase-6 kinetic assay. Format: biochemical. The conditions noted are these: for IC50: substrate Ac-VEID-AFC 0.1 mM, 37 °C. As for the experimental part: (§1) Caspase-3 and caspase-6 were generous gifts from Prof. Guy Salvesen’s laboratory and then used at Ohio State University. Caspase activities were measured in 100 mM HEPES, 10% sucrose, 0.1% CHAPS, 10 mM DTT, pH 7.5 at 37 °C. To 5,000 µL of this buffer, 100 µL of freshly prepared 1 M DTT and 4,900 µL DI H2O were added resulting in the caspase assay buffer. Studies were performed at 37 °C.
Caspase-6 specific substrate Ac-VEID-AFC was purchased from ChemCruz and used as a fluorogenic substrate; λex = 400 nm, λem = 505 nm. To 45 µL of assay buffer, 5 µL of the 19.7 µM enzyme was added. This resulting enzyme solution was further diluted 1:5 with assay buffer resulting in a 0.32 µM solution. In a 96-well plate suitable for fluorometric assays was added 80 µL assay buffer, 5 µL inhibitor, 5 µL enzyme substrate (0.1 mM), and 10 µL enzyme stock solution (32 nM enzyme concentration in well). The enzyme activity was measured in triplicate at varying concentrations of inhibitor (0, 25, 50, 100 µM in DMSO) and substrate (0.1 mM in DMSO) by converting the slope of the plot of fluorescence intensity at 442 nm vs time for the time points between 4 and 8 min using Lambert-Beer’s law. IC50 values were obtained from non-linear fitting of the data to a competitive inhibition model using GraphPad Prism 7.0 software.

The target in another series is T2, human caspase-3 (Homo sapiens, UniProt P42574).
T2 construct: gift, Prof; Guy Salvesen's laboratory
T2 sequence (P42574 29-175 limits assumed): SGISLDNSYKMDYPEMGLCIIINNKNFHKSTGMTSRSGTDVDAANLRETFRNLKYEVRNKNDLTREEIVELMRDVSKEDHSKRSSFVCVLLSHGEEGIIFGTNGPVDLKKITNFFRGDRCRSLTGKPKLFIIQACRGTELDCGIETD
T2 sequence (P42574 176-277 limits assumed): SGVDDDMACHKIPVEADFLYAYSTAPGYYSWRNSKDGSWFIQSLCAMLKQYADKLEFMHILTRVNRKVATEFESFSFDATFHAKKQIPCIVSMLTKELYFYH
Briefly: Caspase-3 kinetic assay. Format: biochemical. The conditions noted are these: substrate Ac-DEVD-AMC 0.1 mM, 37 °C. As for the experimental part: as §1
Caspase-3 specific substrate Ac-DEVD-AMC was purchased from Cayman Chemical Company and used as fluorogenic substrate; λex = 353 nm, λem = 442 nm. 2 µL of 33 µM caspase-3 solution was diluted with 4998 µL caspase assay buffer to make a 13.2 nM enzyme stock solution. In a 96-well plate suitable for fluorometric assays, 80 µL assay buffer, 5 µL inhibitor, 5 µL enzyme substrate (0.1 mM), and 10 µL enzyme stock solution were added. Fluorescence at 442 nM was monitored for 10 min. The enzyme activity was measured in triplicate at varying concentrations of inhibitor (0, 25, 50, 100 µM in DMSO) and substrate (0.1 mM in DMSO) by converting the slope of the plot of fluorescence intensity at 442 nm vs time for the time points between 4 and 8 min using Beer-Lambert’s law. IC50 values were obtained from non-linear fitting of the data to a competitive inhibition model using GraphPad Prism 7.0 software.

Series [1] deals with T3, β5 active site of the human 20S proteasome (Homo sapiens, UniProt P28074).
T3 construct: purchased Boston Biochem
Briefly: Proteasome kinetic assay (β5 chymotrypsin-like active site). The series is classed as biochemical. Conditions: substrate Suc-LLVY-AMC 100 µM. The protocol:
Human 20S proteasome, 700 KDa, was purchased from Boston Biochem (50 µg, 2 µM (1.4 mg/mL)) in 50 mM HEPES buffer (pH 7.6, 100 mM NaCl, 1 mM DTT). Assay buffer was prepared as follows: 20 mM HEPES buffer pH 7.8, 0.5 mM EDTA, 0.037% SDS. Proteasome specific substrate Suc-LLVY-AMC was purchased from Boston Biochem and used as a fluorogenic substrate; λex = 380 nm, λem = 442 nm. 18 µL of 2 µM proteasome solution was diluted with 425 µL H2O to make a 0.06 µM stock enzyme solution for kinetic assays. In a 96-well plate suitable for fluorometric assays was added 86 µL assay buffer, 2 µL inhibitor, 2 µL enzyme substrate, and 10 µL enzyme stock solution ([…] enzyme concentration in well). Fluorescence at 442 nM was monitored for 10 min. […] IC50 values were obtained from non-linear fitting of the data to a competitive inhibition model using GraphPad Prism 7.0 software. The proteasome β5 chymotrypsin-like active site activity assay was performed as previously described.

The next series addresses proteasome. Conditions: substrate Suc-LLVY-AMC, cited from earlier work; for Ki: read-out: previously reported Ki.
The next series concerns the target I. ricinus legumain (Ixodes ricinus, UniProt Q6PRC7). As to the kind of experiment: Legumain kinetic assay (I. ricinus). Format: biochemical. As for the experimental part:
(§2) Schistosoma mansoni and Ixodes ricinus legumain zymogens were expressed in the yeast, Pichia pastoris, as described[36]^,[42]. Legumain kinetic assay details: zymogens were activated for 3 h (Ir) or overnight (Sm) at room temperature in 0.1 M Na-Ac pH 4.0; 5 mM DTT. Activities were measured in 0.1 M Na-Ac pH 5.5; 2.5 mM DTT, 0.1% PEG 6000 buffer. The substrate used was Cbz-AAN-AMC with 50 µM final concentration in the assay. Inhibitors were prepared in DMSO (1% DMSO in activity assay). Measurements were taken with an incubation period of 10 min at room temperature, and the enzyme activity was measured in triplicate. Asparaginyl Endopeptidase (AE) activity assay was performed as previously described.

For another series, the target named is S. mansoni legumain (Schistosoma mansoni, UniProt P09841). Briefly: Legumain kinetic assay (S. mansoni). Format: biochemical. Conditions: for IC50: substrate Cbz-AAN-AMC 50 µM, pH 5.5. As for the experimental part:
as §2

For series [2] the following is noted: cited from earlier work.
The target of series [3] is calpains and various lysosomal cathepsins. Also on record: method as in PMID 8087844. The conditions noted are these: cited from earlier work.
Where [4] appears, read: at the highest concentration tested (100 µM).

Read-outs that look alike come from different tables or passages of the source. Peptide text beside a SMILES is read from it. * marks the point of attachment. Cbz = O=C(OCc1ccccc1)*

Chain of S. mansoni legumain (P09841 32-291): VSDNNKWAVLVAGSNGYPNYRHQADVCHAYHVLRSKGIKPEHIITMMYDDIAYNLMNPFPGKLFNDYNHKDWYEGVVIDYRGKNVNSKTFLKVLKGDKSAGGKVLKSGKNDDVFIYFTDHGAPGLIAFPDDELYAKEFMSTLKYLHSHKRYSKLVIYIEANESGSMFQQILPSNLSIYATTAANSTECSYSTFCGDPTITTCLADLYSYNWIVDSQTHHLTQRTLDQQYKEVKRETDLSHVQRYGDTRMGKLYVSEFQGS
Chain of I. ricinus legumain (Q6PRC7 37-328 limits assumed): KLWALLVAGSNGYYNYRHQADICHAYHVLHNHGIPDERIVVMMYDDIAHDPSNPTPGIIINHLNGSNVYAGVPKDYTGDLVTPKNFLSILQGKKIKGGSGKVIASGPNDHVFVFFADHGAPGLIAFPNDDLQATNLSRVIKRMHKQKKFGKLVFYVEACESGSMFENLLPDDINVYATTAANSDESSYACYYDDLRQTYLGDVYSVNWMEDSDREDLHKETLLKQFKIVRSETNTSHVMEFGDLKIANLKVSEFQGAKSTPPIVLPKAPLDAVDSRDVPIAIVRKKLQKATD

As a reminder, the IC50 is the point on the concentration scale where inhibition reaches its midpoint. As for `CC(=O)C(=O)N(CC(=O)O)NC(=O)[C@@H](NC(=O)[C@H](CCC(=O)O)NC(=O)[C@H](CC(=O)O)NC(=O)OCc1ccccc1)C(C)C` [Compound 6, (5S,8S,11S)-8–(2-Carboxyethyl)-5-(carboxymethyl)-11-isopropyl-3,6,9,12-tetraoxo-14–(2-oxopropanoyl)-1-phenyl-2-oxa-4,7,10,13,14-pentaazahexadecan-16-oic acid], the values for the IC50 against human caspase-6 and against human caspase-3 were 51.9 ± 10.6 µM and 7.74 ± 1.88 µM, respectively. In series [1], `CC(=O)C(=O)N(CC(C)C)NC(=O)[C@H](CC(C)C)NC(=O)[C@H](CC(C)C)NC(=O)OCc1ccccc1` [Compound 4, Benzyl ((S)-1-(((S)-1–(2-isobutyl-2–(2-oxopropanoyl)hydrazinyl)-4-methyl-1-oxopentan-2-yl)amino)-4-methyl-1-oxopentan-2-yl)carbamate] displayed an IC50 of 14.6 ± 2.39 µM. Broadly, the Ki is the dissociation constant of the complex between target and ligand, obtained from inhibition or displacement. For `CCC[C@@H](C=O)NC(=O)[C@H](CC(C)C)NC(=O)[C@H](CC(C)C)NC(=O)OCc1ccccc1` [MG115, Cbz-Leu-Leu-Nle-CHO], the Ki at proteasome is 0.021 µM. Turning to `C[C@H](NC(=O)OCc1ccccc1)C(=O)N[C@@H](C)C(=O)NN(CC(N)=O)C(=O)C(=O)Cc1ccccc1` [Compound 11, Benzyl ((S)-1-(((S)-1–(2–(2-amino-2-oxoethyl)-2-(2-oxo-3-phenylpropanoyl)hydrazinyl)-1-oxopropan-2-yl)amino)-1-oxopropan-2-yl)carbamate], the concentration for half-maximal inhibition (IC50) was found to be 17.8 ± 11.2 µM against I. ricinus legumain and 22.2 ± 4.21 µM on S. mansoni legumain. Consider `CC(C)C[C@H](NC(=O)[C@H](CCc1ccccc1)NC(=O)CN1CCOCC1)C(=O)N[C@@H](Cc1ccccc1)C(=O)N[C@@H](CC(C)C)C(=O)[C@@]1(C)CO1` [Carfilzomib, carfilzomib], for which the “adverse cardiovascular effects, share of patients” value in series [2] (treated patients) was “up to 30%”. `CC(C)C[C@H](NC(=O)[C@H](Cc1ccccc1)NC(=O)c1cnccn1)B(O)O` [bortezomib]: the “peripheral neuropathy, share of patients” value in series [2] (newly diagnosed multiple myeloma patients) is given as “up to 64%”.

The molecule `CC(C)C[C@H](NC(=O)OCc1ccccc1)C(=O)N[C@@H](CC(C)C)C(=O)NN(CC(C)C)C(=O)C(=O)Cc1ccccc1` [Compound 5, Benzyl ((S)-1-(((S)-1–(2-isobutyl-2–(2-oxo-3-phenylpropanoyl)hydrazinyl)-4-methyl-1-oxopentan-2-yl)amino)-4-methyl-1-oxopentan-2-yl)carbamate] showed an IC50 in series [1] of 10.1 ± 4.49 µM.

In the case of `CC(C)C[C@H](NC(=O)OCc1ccccc1)C(=O)N[C@@H](CC(C)C)C(=O)NN(CC(C)C)C(=O)C=O` [Compound 3, Benzyl ((S)-1-(((S)-1–(2-isobutyl-2–(2-oxoacetyl)hydrazinyl)-4-methyl-1-oxopentan-2-yl)amino)-4-methyl-1-oxopentan-2-yl)carbamate], the IC50 in series [1] turned out to be 9.02 ± 1.82 µM. As to `CC[C@@H](C)[C@H](NC(=O)OCc1ccccc1)C(=O)N[C@@H](CCC(=O)O)C(=O)N[C@H](C(=O)NN(CC(=O)O)C(=O)C(C)=O)[C@H](C)O` [Compound 8, (5S,8S,11S)-5-((R)-s-butyl)-8–(2-carboxyethyl)-11-((S)-1-hydroxyethyl)-3,6,9,12-tetraoxo-14–(2-oxopropanoyl)-1-phenyl-2-oxa-4,7,10,13,14-pentaazahexadecan-16-oic acid], the “inhibits caspase-6 more effectively than caspase-3” value at human caspase-6 (ratio of IC50 caspase-3 / caspase-6) worked out at 13 times. In addition, the IC50 against human caspase-6 was 9.08 ± 3.02 µM; against human caspase-3, 122 ± 83.3 µM. On to `CC(=O)C(=O)N(CC(N)=O)NC(=O)[C@H](C)NC(=O)[C@H](C)NC(=O)OCc1ccccc1` [Compound 10, Benzyl ((S)-1-(((S)-1–(2–(2-amino-2-oxoethyl)-2-(2-oxopropanoyl)hydrazinyl)-1-oxopropan-2-yl)amino)-1-oxopropan-2-yl)carbamate], for which, at I. ricinus legumain (setting [4]), the “inhibition of I. ricinus legumain” value is “did not show inhibition”. Moreover, the IC50 at I. ricinus legumain (substrate Cbz-AAN-AMC 50 µM, pH 5.5, read-out: IC50 I. ricinus) is more than 100 µM; on S. mansoni legumain, more than 100 µM. The “inhibition of S. mansoni legumain” value against S. mansoni legumain (setting [4]) was “did not show inhibition”. In the case of `CC(C)[C@H](NC(=O)[C@H](CCC(=O)O)NC(=O)[C@H](CC(=O)O)NC(=O)OCc1ccccc1)C(=O)NN(CC(=O)O)C(=O)C(=O)Cc1ccccc1` [Compound 7, (5S,8S,11S)-8–(2-Carboxyethyl)-5-(carboxymethyl)-11-isopropyl-3,6,9,12-tetraoxo-14–(2-oxo-3-phenylpropanoyl)-1-phenyl-2-oxa-4,7,10,13,14-pentaazahexadecan-16-oic acid], the IC50 came to 64.2 ± 45.4 µM against human caspase-6 and 13.4 ± 4.61 µM against human caspase-3.

Regarding `CC(C)C[C@@H](C=O)NC(=O)[C@H](CC(C)C)NC(=O)[C@H](CC(C)C)NC(=O)OCc1ccccc1` [MG132, Cbz-Leu-Leu-Leu-CHO] (Cbz-Leu-Leu-Leu-aldehyde), the Ki in series [3] was 0.005 to 0.012 µM; on proteasome, 0.002 to 0.004 µM. The “previously reported Ki” value at proteasome is recorded as “few nanomolar”.

These data come from publication PMC7470110, “Design, synthesis, and in vitro evaluation of aza-peptide aldehydes and ketones as novel and selective protease inhibitors” (Journal of Enzyme Inhibition and Medicinal Chemistry, 2020).
